Active and inactive are the calls of the source. No cut-off for these calls is given here.

From ChEMBL document CHEMBL1144693, “Botryolides A-E, decarestrictine analogues from a fungicolous Botryotrichum sp. (NRRL 38180)” (J Nat Prod, 2008) come the findings set out here.

One test relates to Candida albicans. As to the kind of experiment: Antifungal activity against Candida albicans ATCC 14053 at 100 ug/disk. It is filed as functional, organism-based.
Turning to `C[C@@H]1C[C@H](O)C(=O)CCC(O)CC(=O)O1` (stereo partly drawn), the outcome was inactive.
The same measure, in the same setting: the same measure for `C[C@@H]1C[C@@H]2O[C@@H]2/C=C/[C@H](O)CC(=O)O1`: “inactive”; for `C[C@@H]1C[C@@H]2O[C@@H]2/C=C/[C@]2(CC(=O)O1)C[C@@H](O)C(=O)O2`: “inactive”.
Same read-out and setting: for `C[C@@H]1C[C@@H]2O[C@@H]2[C@H]2O[C@@H]2[C@@H](O)CC(=O)O1` the value was “inactive”.

The test system of the next test is Bacillus subtilis. As to the kind of experiment: Antibacterial activity against Bacillus subtilis ATCC 6051 at 100 ug/disk. The format is functional, organism-based.
As to `C[C@@H]1C[C@H](O)C(=O)CCC(O)CC(=O)O1` (stereo partly drawn), the outcome was inactive.
Same read-out and setting: for `C[C@@H]1C[C@@H]2O[C@@H]2/C=C/[C@H](O)CC(=O)O1` the value was “inactive”.
On the same count and under the same terms, the same measure for `C[C@@H]1C[C@@H]2O[C@@H]2/C=C/[C@]2(CC(=O)O1)C[C@@H](O)C(=O)O2`: “inactive”.
On the same count and under the same terms, the same measure for `C[C@@H]1C[C@@H]2O[C@@H]2[C@H]2O[C@@H]2[C@@H](O)CC(=O)O1`: “inactive”.

The subject of the next test is Aspergillus flavus. As to the kind of experiment: Antifungal activity against Aspergillus flavus NRRL 6541 at 100 ug/disk. It is filed as functional, organism-based.
With `C[C@@H]1C[C@H](O)C(=O)CCC(O)CC(=O)O1` (stereo partly drawn), the outcome was inactive.
Still for that read-out and setting: for `C[C@@H]1C[C@@H]2O[C@@H]2/C=C/[C@H](O)CC(=O)O1` the value was “inactive”.
Still for that read-out and setting: for `C[C@@H]1C[C@@H]2O[C@@H]2[C@H]2O[C@@H]2[C@@H](O)CC(=O)O1` the value was “inactive”.

In a further test the test system is Staphylococcus aureus. As to the kind of experiment: Antibacterial activity against Staphylococcus aureus ATCC 25923 at 100 ug/disk. It is filed as functional, organism-based.
Consider `C[C@@H]1C[C@H](O)C(=O)CCC(O)CC(=O)O1` (stereo partly drawn), for which the outcome was inactive.
Still for that read-out and setting: the same measure for `C[C@@H]1C[C@@H]2O[C@@H]2/C=C/[C@H](O)CC(=O)O1`: “inactive”; for `C[C@@H]1C[C@@H]2O[C@@H]2/C=C/[C@]2(CC(=O)O1)C[C@@H](O)C(=O)O2`: “inactive”; for `C[C@@H]1C[C@@H]2O[C@@H]2[C@H]2O[C@@H]2[C@@H](O)CC(=O)O1`: “inactive”.

Another test relates to Fusarium verticillioides. As to the kind of experiment: Antifungal activity against Fusarium verticillioides NRRL 25457 at 100 ug/disk. The format is functional, organism-based.
Consider `C[C@@H]1C[C@H](O)C(=O)CCC(O)CC(=O)O1` (stereo partly drawn), for which the result was inactive.
Still for that read-out and setting: the same measure for `C[C@@H]1C[C@@H]2O[C@@H]2/C=C/[C@H](O)CC(=O)O1`: “inactive”.
The same measure, in the same setting: for `C[C@@H]1C[C@@H]2O[C@@H]2[C@H]2O[C@@H]2[C@@H](O)CC(=O)O1` the value was “inactive”.
